Experimental data as given in US10004786B2 (Zealand Pharma A/S, priority 2009, dated 2018).
Values belong to the compound of their own block, whether it stands above or below them. Numbered stars: 1 amine (or outer) side, 2 acyl side, 3 side chain; on linkers, the order of the positions; unused ones are H or OH. Square brackets hold non-standard residues; d marks the D form. Side chains are listed from the residue outwards. Peptide text beside a SMILES is read from it. * marks the point of attachment. γGlu = O=C(O)[C@H](CCC(=O)[*:2])N[*:1]; Palmitoyl = CCCCCCCCCCCCCCCC(=O)*; Aib = CC(C)(N)C(=O)O

Key:
human Glucagon-R = biological target: T1, human Glucagon-R (Homo sapiens, UniProt P47871); experiment: Glucagon receptor efficacy assay (cAMP formation in HEK293 cells expressing human Glucagon-R); format: cell-based; conditions: Table 1a, HEK293 cells expressing hGlucagonR, read-out: EC50 (nM) GluR
T1 construct: expressed in transfected cells
Protocol: The 5′-end primers additionally encoded a near Kozak consensus sequence to ensure efficient translation.
48 hr after transfection cells were seeded for limited dilution cloning and selected with 1 mg/ml G418 in the culture medium.
On the day of analysis, growth medium was removed and the cells washed once with 200 μl Tyrode buffer. […] The reaction was stopped by addition of 25 μl 0.5 M HCl and incubated on ice for 60 min. The cAMP content was estimated using the FlashPlate® cAMP kit from Perkin-Elmer.
Efficacy of the GluGLP-1 agonists were estimated by exposing cells expressing hGlucagonR and hGLP-1R to the listed acylated compounds at increasing concentrations and measuring the formed cAMP as described in Methods.

[1] = Liver weight/body weight of C57BL/6J mice treated for 2 weeks; format: in vivo; conditions: 5 nmol/kg twice daily s.c.
Protocol: Mice were treated twice daily s.c. with Cpd. 1 and Cpd. 11 (at two doses: 0.5 and 5 nmol/kg) or vehicle for 2 weeks. Throughout the study, body weights were recorded daily and used to administer the body weight-corrected doses of peptide. On the day of sacrifice, the liver was exposed, and weighed.

[2] = Pharmacokinetic screening in mouse plasma after subcutaneous administration; format: in vivo; conditions: sc, mice, 100 nmol/kg s.c., * = only two time points used for calculation
Protocol: Mice were dosed 100 nmol/kg subcutaneously (s.c.). The mice were sacrificed and the blood collected at the following time points; 0.5, 2, 4, 6, 16 and 24 h. Plasma samples were analyzed using protein precipitation, followed by solid phase extraction (SPE) and liquid chromatography mass spectrometry (LC-MS).
Pharmacokinetic profiles were determined for various acylated compounds.

[3] = Food intake in young lean and old obese C57BL/6J mice; format: in vivo; conditions: s.c. at t=0 h and t=12 h, p<0.05 versus vehicle
Protocol: C57BL/6J mice were on a high fat diet for 11 days and C57BL/6J mice were on a high fat diet for 52 weeks.
3 days before study, the mice were transferred to individual cages and weighed. 4 days before study, they were acclimatized to handling and treatment by daily s.c. injections. On the day before the experiment food was removed at 20:00. […] Immediately after treatment (t=0), pre-weighed food were introduced to the mice and the cumulative food intake was measured by weighing the remaining food after t=1, 2, 4, 8, 12 and 24 hours. After weighing the food and the animals at t=24 h, the mice were sacrificed by cervical dislocation.
Immediately after treatment (t=0), pre-weighed food were introduced to the mice and the cumulative food intake was measured by weighing the remaining food after t=1, 2, 4, 8, 12 and 24 hours.

[4] = Body weight gain in high fat fed C57BL/6J mice (10 days); format: in vivo; conditions: short term high fat-fed C57BL/6J mice
Protocol: C57Bl/6J male mice, 6 weeks old, were acclimatized in their new environment for 4 weeks with free access to high fat diet (HFD) (D12492, Research Diet Inc., New Brunswick, USA) and water. The animals were injected s.c. with 100 μl vehicle for a period of three days to acclimatize the animals to handling and injections, prior to initiation of peptide treatment. […] Throughout the study, body weights were recorded daily and used to administer the body weight-corrected doses of peptide. All animals were sacrificed on the same day by cervical dislocation.
C57Bl/6J male mice on high fat diet (HFD) were treated (b.i.d.; s.c.) (0.5 and 5 nmol/kg) or vehicle. Body weights were recorded daily and used to administer the body weight-corrected doses of peptide throughout the study. Data are shown as mean±SEM in FIG. 7.

T1 sequence (P47871 26-477): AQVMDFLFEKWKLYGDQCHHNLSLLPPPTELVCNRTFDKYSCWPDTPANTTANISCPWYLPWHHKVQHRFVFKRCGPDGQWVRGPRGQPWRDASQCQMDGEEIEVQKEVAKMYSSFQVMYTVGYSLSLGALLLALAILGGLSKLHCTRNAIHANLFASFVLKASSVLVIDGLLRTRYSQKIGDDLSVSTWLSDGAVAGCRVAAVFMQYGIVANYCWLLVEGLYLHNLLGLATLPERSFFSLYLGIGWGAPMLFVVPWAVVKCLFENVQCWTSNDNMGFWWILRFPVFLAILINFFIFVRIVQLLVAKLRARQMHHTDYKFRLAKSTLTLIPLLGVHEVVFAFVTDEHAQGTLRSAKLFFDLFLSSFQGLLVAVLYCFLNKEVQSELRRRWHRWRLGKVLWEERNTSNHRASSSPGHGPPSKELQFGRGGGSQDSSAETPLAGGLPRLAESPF

Compound: CCCCCCCCCCCCCCCC(=O)NCCCC(=O)NCCCC[C@H](NC(=O)[C@H](CO)NC(=O)[C@H](CC(=O)O)NC(=O)[C@H](CC(C)C)NC(=O)[C@H](Cc1ccc(O)cc1)NC(=O)[C@H](CCCCN)NC(=O)[C@H](CO)NC(=O)[C@H](Cc1ccc(O)cc1)NC(=O)[C@H](CC(=O)O)NC(=O)[C@H](CO)NC(=O)[C@@H](NC(=O)[C@H](Cc1ccccc1)NC(=O)[C@@H](NC(=O)CNC(=O)[C@H](CCC(N)=O)NC(=O)C(C)(C)NC(=O)[C@@H](N)Cc1c[nH]cn1)[C@@H](C)O)[C@@H](C)O)C(=O)N[C@@H](C)C(=O)N[C@@H](C)C(=O)N[C@@H](Cc1c[nH]cn1)C(=O)N[C@@H](CC(=O)O)C(=O)N[C@@H](Cc1ccccc1)C(=O)N[C@H](C(=O)N[C@@H](CCC(=O)O)C(=O)N[C@@H](Cc1c[nH]c2ccccc12)C(=O)N[C@@H](CC(C)C)C(=O)N[C@@H](CC(C)C)C(=O)N[C@@H](CO)C(=O)N[C@@H](C)C(N)=O)C(C)C [Compound 27]
EC50 (human Glucagon-R): 0.147 nM

Compound: CCCCCCCCCCCCCCCC(=O)N[C@@H](CCC(=O)NCCCC[C@H](NC(=O)[C@H](C)NC(=O)[C@H](C)NC(=O)[C@H](CCCCN)NC(=O)[C@H](CO)NC(=O)[C@H](CC(=O)O)NC(=O)[C@H](CC(C)C)NC(=O)[C@H](Cc1ccc(O)cc1)NC(=O)[C@H](CCCCN)NC(=O)[C@H](CO)NC(=O)[C@H](Cc1ccc(O)cc1)NC(=O)[C@H](CC(=O)O)NC(=O)[C@H](CO)NC(=O)[C@@H](NC(=O)[C@H](Cc1ccccc1)NC(=O)[C@@H](NC(=O)CNC(=O)[C@H](CCC(N)=O)NC(=O)C(C)(C)NC(=O)[C@@H](N)Cc1c[nH]cn1)[C@@H](C)O)[C@@H](C)O)C(=O)N[C@@H](CC(=O)O)C(=O)N[C@@H](Cc1ccccc1)C(=O)N[C@H](C(=O)N[C@@H](CCC(=O)O)C(=O)N[C@@H](Cc1c[nH]c2ccccc12)C(=O)N[C@@H](CC(C)C)C(=O)N[C@@H](CC(C)C)C(=O)N[C@@H](CO)C(=O)N[C@@H](C)C(N)=O)C(C)C)C(=O)O [Compound 35] (H-H[Aib]QGTFTSDYSKYLDSKAAK([γGlu-Palmitoyl])DFVEWLLSA-NH2)
EC50 (human Glucagon-R): 0.18 nM

Compound: Exendin-4 [reference compound]
food intake, old obese mice ([3]; high fat diet for 52 weeks): reduced food intake in all time periods | food intake, young lean mice ([3]; high fat diet for 11 days): reduced food intake during the 0-2, 0-4, 0-8, 0-12 and 0-24 time periods | body weight gain, low dose ([4]; 0.5 nmol/kg b.i.d. s.c.): significantly decreased body weight gain at both doses | body weight gain, high dose ([4]; 5 nmol/kg b.i.d. s.c.): significantly decreased body weight gain at both doses

Continued, in another order:

half-life [2]: 13.8 min
Compound: H-HSQGTFTSDYSKYLDSKAAHDFVEWLLRA-NH2 [Compound 1]
liver weight/body weight ratio, high dose [1]: significantly increased

EC50 (human Glucagon-R): 0.147 nM
Compound: CCCCCCCCCCCCCCCC(=O)N[C@@H](CCC(=O)NCCCC[C@H](NC(=O)[C@H](CC(C)C)NC(=O)[C@H](CC(C)C)NC(=O)[C@H](Cc1c[nH]c2ccccc12)NC(=O)[C@H](CCC(=O)O)NC(=O)[C@@H](NC(=O)[C@H](Cc1ccccc1)NC(=O)[C@H](CC(=O)O)NC(=O)[C@H](Cc1c[nH]cn1)NC(=O)[C@H](C)NC(=O)[C@H](C)NC(=O)[C@H](CCCCN)NC(=O)[C@H](CO)NC(=O)[C@H](CC(=O)O)NC(=O)[C@H](CC(C)C)NC(=O)[C@H](Cc1ccc(O)cc1)NC(=O)[C@H](CCCCN)NC(=O)[C@H](CO)NC(=O)[C@H](Cc1ccc(O)cc1)NC(=O)[C@H](CC(=O)O)NC(=O)[C@H](CO)NC(=O)[C@@H](NC(=O)[C@H](Cc1ccccc1)NC(=O)[C@@H](NC(=O)CNC(=O)[C@H](CCC(N)=O)NC(=O)C(C)(C)NC(=O)[C@@H](N)Cc1c[nH]cn1)[C@@H](C)O)[C@@H](C)O)C(C)C)C(=O)N[C@@H](C)C(N)=O)C(=O)O [Compound 37] (H-H[Aib]QGTFTSDYSKYLDSKAAHDFVEWLLK([γGlu-Palmitoyl])A-NH2)

EC50 (human Glucagon-R): 0.12 nM
Compound: CCCCCCCCCCCCCCCC(=O)N[C@@H](CCC(=O)NCCCC[C@H](NC(=O)[C@H](CO)NC(=O)[C@H](CC(=O)O)NC(=O)[C@H](CC(C)C)NC(=O)[C@H](Cc1ccc(O)cc1)NC(=O)[C@H](CCCCN)NC(=O)[C@H](CO)NC(=O)[C@H](Cc1ccc(O)cc1)NC(=O)[C@H](CC(=O)O)NC(=O)[C@H](CO)NC(=O)[C@@H](NC(=O)[C@H](Cc1ccccc1)NC(=O)[C@@H](NC(=O)CNC(=O)[C@H](CCC(N)=O)NC(=O)C(C)(C)NC(=O)[C@@H](N)Cc1c[nH]cn1)[C@@H](C)O)[C@@H](C)O)C(=O)N[C@@H](C)C(=O)N[C@@H](C)C(=O)N[C@@H](Cc1c[nH]cn1)C(=O)N[C@@H](CC(=O)O)C(=O)N[C@@H](Cc1ccccc1)C(=O)N[C@H](C(=O)N[C@@H](CCC(=O)O)C(=O)N[C@@H](Cc1c[nH]c2ccccc12)C(=O)N[C@@H](CC(C)C)C(=O)N[C@@H](CC(C)C)C(=O)N[C@@H](CCC(=O)O)C(=O)N[C@@H](C)C(N)=O)C(C)C)C(=O)O [Compound 43] (H-H[Aib]QGTFTSDYSKYLDSK([γGlu-Palmitoyl])AAHDFVEWLLEA-NH2)

EC50 (human Glucagon-R): 0.27 nM
Compound: CCCCCCCCCCCCCCCC(=O)N[C@@H](CCC(=O)NCCCC[C@H](NC(=O)[C@H](CO)NC(=O)[C@H](CC(=O)O)NC(=O)[C@H](CC(C)C)NC(=O)[C@H](Cc1ccc(O)cc1)NC(=O)[C@H](CCCCN)NC(=O)[C@H](CO)NC(=O)[C@H](Cc1ccc(O)cc1)NC(=O)[C@H](CC(=O)O)NC(=O)[C@H](CO)NC(=O)[C@@H](NC(=O)[C@H](Cc1ccccc1)NC(=O)[C@@H](NC(=O)CNC(=O)[C@H](CCC(N)=O)NC(=O)C(C)(C)NC(=O)[C@@H](N)Cc1c[nH]cn1)[C@@H](C)O)[C@@H](C)O)C(=O)N[C@@H](C)C(=O)N[C@@H](C)C(=O)N[C@@H](CCC(=O)O)C(=O)N[C@@H](CC(=O)O)C(=O)N[C@@H](Cc1ccccc1)C(=O)N[C@H](C(=O)N[C@@H](CCC(=O)O)C(=O)N[C@@H](Cc1c[nH]c2ccccc12)C(=O)N[C@@H](CC(C)C)C(=O)N[C@@H](CC(C)C)C(=O)N[C@@H](CO)C(=O)N[C@@H](C)C(N)=O)C(C)C)C(=O)O [Compound 42] (H-H[Aib]QGTFTSDYSKYLDSK([γGlu-Palmitoyl])AAEDFVEWLLSA-NH2)
